Laboratory results published in US20110301200A1, “THYROID RECEPTOR LIGANDS” (CADILA HEALTHCARE LIMITED, priority 2008, published 2011).
pEC50: −log10 of the molar value.

What was measured:
cholesterol-fed rats = assay: Cholesterol lowering and change in heart rate in cholesterol-fed rats; assay type: in vivo, rat; settings: treated for 7 days
Protocol: Cholesterol lowering effect of T3 and selected compounds disclosed in the present invention on cholesterol lowering and change in heart rate in cholesterol-fed rats (treated for 7 days) was determined according to the general protocol described in PNAS, vol. […] Therefore, these compounds have the potential to be further developed as selective TR-beta agonists for the treatment of human & other animals in need of such treatment.

TR-α = target: T1, TR-α (Homo sapiens, UniProt P10827); assay: In vitro TR-α activity (in-house protocol); assay type: cell-based; settings: for fold induction at 0.001 µM: Conc. 1 nM; for fold induction at 0.001 µM / fold induction at 0.01 µM / fold induction at 0.1 µM / fold induction at 1 µM: read-out: TR-α Fold Induction w.r.t T3(100 nm); for fold induction at 0.01 µM: Conc. 10 nM; for fold induction at 0.1 µM: Conc. 100 nM; for fold induction at 1 µM: Conc. 1000 nM
T1 sequence (P10827 1-410 isoform P10827-2): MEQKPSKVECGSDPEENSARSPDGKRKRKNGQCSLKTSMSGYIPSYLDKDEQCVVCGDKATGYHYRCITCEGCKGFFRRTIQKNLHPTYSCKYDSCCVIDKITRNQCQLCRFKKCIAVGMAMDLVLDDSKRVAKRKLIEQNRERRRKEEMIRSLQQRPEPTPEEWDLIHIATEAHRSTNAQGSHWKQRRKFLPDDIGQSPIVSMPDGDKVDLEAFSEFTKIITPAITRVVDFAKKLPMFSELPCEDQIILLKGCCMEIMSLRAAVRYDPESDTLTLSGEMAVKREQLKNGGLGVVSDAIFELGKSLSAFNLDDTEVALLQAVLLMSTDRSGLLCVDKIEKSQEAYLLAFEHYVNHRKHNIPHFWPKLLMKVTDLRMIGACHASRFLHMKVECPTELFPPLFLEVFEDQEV
Protocol: (§1) In vitro TR-α & TR-β activities were determined as per in-house protocols and the results of representative compounds are provided in tables 1 & 2 below as a proof of the efficacies of the novel class of compounds disclosed above.

TR-β = target: T2, TR-β (Homo sapiens, UniProt P10828); assay: In vitro TR-β activity (in-house protocol); assay type: cell-based; settings: for fold induction at 0.001 µM: Conc. 1 nM; for fold induction at 0.001 µM / fold induction at 0.01 µM / fold induction at 0.1 µM / fold induction at 1 µM: read-out: TR-β Fold Induction w.r.t T3(100 nm); for fold induction at 0.01 µM: Conc. 10 nM; for fold induction at 0.1 µM: Conc. 100 nM; for fold induction at 1 µM: Conc. 1000 nM
T2 sequence (P10828 1-461): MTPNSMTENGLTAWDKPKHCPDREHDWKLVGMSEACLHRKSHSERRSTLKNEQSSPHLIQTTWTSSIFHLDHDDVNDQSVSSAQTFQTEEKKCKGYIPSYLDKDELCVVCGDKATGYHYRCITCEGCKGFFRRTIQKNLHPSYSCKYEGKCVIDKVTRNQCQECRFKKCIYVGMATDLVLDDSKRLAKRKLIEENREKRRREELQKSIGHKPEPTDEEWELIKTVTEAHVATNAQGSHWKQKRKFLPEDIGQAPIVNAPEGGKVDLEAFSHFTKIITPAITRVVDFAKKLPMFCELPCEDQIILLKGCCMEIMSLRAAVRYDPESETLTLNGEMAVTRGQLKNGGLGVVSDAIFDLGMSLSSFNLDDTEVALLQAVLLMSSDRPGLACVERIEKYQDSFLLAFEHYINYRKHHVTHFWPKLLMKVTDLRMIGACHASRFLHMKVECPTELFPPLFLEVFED
Protocol: as §1

Compound	pEC50 (TR-α)	pEC50 (TR-β)	fold induction at 0.001 µM (TR-α)	fold induction at 0.01 µM (TR-α)	fold induction at 0.1 µM (TR-α)	fold induction at 1 µM (TR-α)	fold induction at 0.001 µM (TR-β)	fold induction at 0.01 µM (TR-β)	fold induction at 0.1 µM (TR-β)	fold induction at 1 µM (TR-β)	% Change in Heart Rate (cholesterol-fed rats; oral 13 μg/kg)	% Change in Total Cholesterol (cholesterol-fed rats; oral 13 μg/kg)	% Change in Heart Rate (cholesterol-fed rats; oral 0.2 mg/kg)	% Change in Total Cholesterol (cholesterol-fed rats; oral 0.2 mg/kg)	% Change in Heart Rate (cholesterol-fed rats; oral 0.1 mg/kg)	% Change in Total Cholesterol (cholesterol-fed rats; oral 0.1 mg/kg)	% Change in Heart Rate (cholesterol-fed rats; oral 0.5 mg/kg)	% Change in Total Cholesterol (cholesterol-fed rats; oral 0.5 mg/kg)
N[C@@H](Cc1cc(I)c(Oc2ccc(O)c(I)c2)c(I)c1)C(=O)O [Example T3, reference compound]											14%	−46%						
CC(ON=Cc1cc(Br)c(Oc2ccc(O)c(C(=O)c3ccc(Cl)cc3)c2)c(Br)c1)C(=O)O (centres unmarked) [Example 26, 2-(((3,5-dibromo-4-(3-(4-chlorobenzoyl)-4-hydroxyphenoxy)benzylidene)amino)oxy)propanoic acid]			12.1	13.9	34.9	64.5	9.62	13.2	41.2	76.2								
CC(ON=Cc1cc(Br)c(Oc2ccc(O)c(S(=O)(=O)N3CCCC3)c2)c(Br)c1)C(=O)O (centres unmarked) [Example 42, 2-(((3,5-dibromo-4-(4-hydroxy-3-(pyrrolidin-1-ylsulfonyl)phenoxy)benzylidene)amino)oxy)propanoic acid]			17.7	9.9	20.4	91.4	7.3	4.48	15	60.8								
CCC(C)c1cc(Oc2c(Cl)cc(C=NOC(C)C(=O)O)cc2Cl)ccc1O (centres unmarked) [Example 23, 2-(((4-(3-(sec-butyl)-4-hydroxyphenoxy)-3,5-dichlorobenzylidene)amino)oxy)propanoic acid]			22.6	48.2	92.2	138	19.2	53.1	78.9	90								

Now from value to compound, other results behind:

pEC50 (TR-α)	pEC50 (TR-β)	fold induction at 0.001 µM (TR-α)	fold induction at 0.01 µM (TR-α)	fold induction at 0.1 µM (TR-α)	fold induction at 1 µM (TR-α)	fold induction at 0.001 µM (TR-β)	fold induction at 0.01 µM (TR-β)	fold induction at 0.1 µM (TR-β)	fold induction at 1 µM (TR-β)	Compound	% Change in Heart Rate (cholesterol-fed rats; oral 13 μg/kg)	% Change in Total Cholesterol (cholesterol-fed rats; oral 13 μg/kg)	% Change in Heart Rate (cholesterol-fed rats; oral 0.2 mg/kg)	% Change in Total Cholesterol (cholesterol-fed rats; oral 0.2 mg/kg)	% Change in Heart Rate (cholesterol-fed rats; oral 0.1 mg/kg)	% Change in Total Cholesterol (cholesterol-fed rats; oral 0.1 mg/kg)	% Change in Heart Rate (cholesterol-fed rats; oral 0.5 mg/kg)	% Change in Total Cholesterol (cholesterol-fed rats; oral 0.5 mg/kg)
7.60	8.49									CC(ON=Cc1cc(Br)c(Oc2ccc(O)c(C(C)C)c2)c(Br)c1)C(=O)O (centres unmarked) [Example 10, 2-(((3,5-dibromo-4-(4-hydroxy-3-isopropylphenoxy)benzylidene)amino)oxy)propanoic acid]			9.5%	−45%				
8.29	9.00									CCC(C)c1cc(Oc2c(Br)cc(C=NOC(C)C(=O)O)cc2Br)ccc1O (centres unmarked) [Example 14, 2-(((3,5-dibromo-4-(3-(sec-butyl)-4-hydroxyphenoxy)benzylidene)amino)oxy)propanoic acid]					−2%	−44%		
		18.3	38.5	93.8	133	17.7	49.5	92.1	138	CC(C)c1cc(Oc2c(Br)cc(C=NOCC(=O)O)cc2Br)ccc1O [Example 3, 2-(((3,5-dibromo-4-(4-hydroxy-3-isopropylphenoxy)benzylidene)amino)oxy)acetic acid]							4.2%	−68%
		16.2	25	40.4	54.5	10.2	26.4	61.7	58.9	O=C(O)CON=Cc1cc(Br)c(Oc2ccc(O)c(C(=O)c3ccc(Cl)cc3)c2)c(Br)c1 [Example 28, 2-(((3,5-dibromo-4-(3-(4-chlorobenzoyl)-4-hydroxyphenoxy)benzylidene)amino)oxy)acetic acid]								
		11.2	11.5	17.6	45.6	8.41	9.07	17.7	60.5	CC(C)NS(=O)(=O)c1cc(Oc2c(Br)cc(C=NOC(C)C(=O)O)cc2Br)ccc1O (centres unmarked) [Example 37, 2-(((3,5-dibromo-4-(4-hydroxy-3-(N-isopropylsulfamoyl)phenoxy)benzylidene)amino)oxy)propanoic acid]								
		13.2	14.4	45.2	76.4	10.1	16.4	29.1	107	CC(ON=Cc1cc(Br)c(Oc2ccc(O)c(C(O)c3ccc(Cl)cc3)c2)c(Br)c1)C(=O)O (centres unmarked) [Example 27, 2-(((3,5-dibromo-4-(3-((4-chlorophenyl)(hydroxy)methyl)-4-hydroxyphenoxy)benzylidene)amino)oxy)propanoic acid]								
